Results as given in ChEMBL document CHEMBL1201861, “Genomics of Drug Sensitity in Cancer screening data, Wellcome Trust Sanger Institute”.
Several values for one entry are separate records, joined by “and”; a condition that tells them apart may be missing. Equal entries are not always repeated. Where a SMILES comes first, the peptide text is derived from it. The star is where a group is joined. Cbz = O=C(OCc1ccccc1)*

What was measured:
D-542MG = experiment: cells; format: functional, cell-based; conditions: Homo sapiens
Description: SANGER: Inhibition of human D-542MG cell growth in a cell viability assay.

DG-75 = experiment: cells; format: functional, cell-based, Homo sapiens;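 also: growth inhibition of DG-75 cells, read out with a cell viability assay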
Description: SANGER: Inhibition of human DG-75 cell growth in a cell viability assay.

DMS-153 = experiment: cells; format: functional, cell-based, Homo sapiens
Description: SANGER: Inhibition of human DMS-153 cell growth in a cell viability assay.

Daudi = experiment: cells; format: functional, cell-based, Homo sapiens;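 also: growth inhibition of Daudi cells, read out by a viability assay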
Description: SANGER: Inhibition of human Daudi cell growth in a cell viability assay.

EHEB = experiment: cells; format: functional, cell-based; conditions: Homo sapiens;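 also: growth inhibition of human EHEB cells, read out with a cell viability assay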
Description: SANGER: Inhibition of human EHEB cell growth in a cell viability assay.

GDM-1 = experiment: cells; format: functional, cell-based, Homo sapiens; conditions: read-out: IC50;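 also: cell viability readout used to measure growth inhibition of human GDM-1 cells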
Description: SANGER: Inhibition of human GDM-1 cell growth in a cell viability assay.

KMS-12-PE = experiment: cells; format: functional, cell-based, Homo sapiens;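 also: growth inhibition of human KMS-12-PE cells, measured with a cell viability assay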
Description: SANGER: Inhibition of human KMS-12-PE cell growth in a cell viability assay.

MC-CAR = experiment: cells; format: functional, cell-based, Homo sapiens;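 also: growth inhibition of the human MC-CAR cell line, read out by a cell viability assay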
Description: SANGER: Inhibition of human MC-CAR cell growth in a cell viability assay.

MONO-MAC-6 = experiment: cells; format: functional, cell-based, Homo sapiens;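 also: cell viability assay measuring growth inhibition of human MONO-MAC-6 cells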
Description: SANGER: Inhibition of human MONO-MAC-6 cell growth in a cell viability assay.

NALM-6 = experiment: cells; format: functional, cell-based, Homo sapiens;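 also: growth inhibition of NALM-6 cells, read out with a cell viability assay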
Description: SANGER: Inhibition of human NALM-6 cell growth in a cell viability assay.

NB1 = experiment: cells; format: functional, cell-based, Homo sapiens;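 also: reduction of NB1 cell proliferation, read out with a viability assay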
Description: SANGER: Inhibition of human NB1 cell growth in a cell viability assay.

NCI-H1882 = experiment: cells; format: functional, cell-based, Homo sapiens;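 also: growth inhibition of the cell line, determined with a viability assay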
Description: SANGER: Inhibition of human NCI-H1882 cell growth in a cell viability assay.

NCI-H524 = experiment: cells; format: functional, cell-based, Homo sapiens;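 also: growth inhibition of human NCI-H524 cells, read out through a cell viability assay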
Description: SANGER: Inhibition of human NCI-H524 cell growth in a cell viability assay.

NCI-H64 = experiment: cells; format: functional, cell-based, Homo sapiens;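 also: growth inhibition of NCI-H64 cells, read out with a cell viability assay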
Description: SANGER: Inhibition of human NCI-H64 cell growth in a cell viability assay.

NCI-H889 = experiment: cells; format: functional, cell-based, Homo sapiens;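 also: cell growth inhibition of the cell line, read out with a viability assay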
Description: SANGER: Inhibition of human NCI-H889 cell growth in a cell viability assay.

Raji = experiment: cells; format: functional, cell-based, Homo sapiens;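 also: cell viability assay measuring inhibition of Raji cell growth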
Description: SANGER: Inhibition of human Raji cell growth in a cell viability assay.

TE-441-T = experiment: cells; format: functional, cell-based, Homo sapiens
Description: SANGER: Inhibition of human TE-441-T cell growth in a cell viability assay.

CESS = experiment: SANGER: Inhibition of human CESS cell growth in a cell viability assay.; format: functional, cell-based
DoTc2-4510 = experiment: cells; format: functional, cell-based; conditions: Homo sapiens
EFM-19 = experiment: cells; format: functional, cell-based; conditions: Homo sapiens;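 also: growth inhibition of human EFM-19 cells, measured in a cell viability assay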
Description: SANGER: Inhibition of human EFM-19 cell growth in a cell viability assay.

GCT = experiment: cells; format: functional, cell-based; conditions: Homo sapiens;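 also: GCT cell line proliferation inhibition, read out with a cell viability assay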
Description: SANGER: Inhibition of human GCT cell growth in a cell viability assay.

HCC1419 = experiment: cells; format: functional, cell-based; conditions: Homo sapiens;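 also: growth inhibition of human HCC1419 cells, read out as cell viability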
Description: SANGER: Inhibition of human HCC1419 cell growth in a cell viability assay.

HT-1376 = experiment: cells; format: functional, cell-based; conditions: Homo sapiens
Description: SANGER: Inhibition of human HT-1376 cell growth in a cell viability assay.

HTC-C3 = experiment: cells; format: functional, cell-based; conditions: Homo sapiens;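 also: inhibition of cell growth, read out with a cell viability assay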
Description: SANGER: Inhibition of human HTC-C3 cell growth in a cell viability assay.

HuCCT-1 = experiment: cells; format: functional, cell-based, HuCCT1; conditions: Homo sapiens;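 also: growth inhibition of HuCCT-1 cells, read out by a cell viability assay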
Description: SANGER: Inhibition of human HuCCT1 cell growth in a cell viability assay.

KP-4 = experiment: cells; format: functional, cell-based; conditions: Homo sapiens;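 also: human KP-4 cells, with growth inhibition read out through a cell viability assay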
Description: SANGER: Inhibition of human KP-4 cell growth in a cell viability assay.

KYSE-180 = experiment: cells; format: functional, cell-based; conditions: Homo sapiens;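 also: growth inhibition of KYSE-180 cells, read out with a cell viability assay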
Description: SANGER: Inhibition of human KYSE-180 cell growth in a cell viability assay.

KYSE-410 = experiment: cells; format: functional, cell-based; conditions: Homo sapiens;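 also: growth inhibition of KYSE-410 cells, measured through a cell viability readout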
Description: SANGER: Inhibition of human KYSE-410 cell growth in a cell viability assay.

KYSE-70 cell line = experiment: cells; format: functional, cell-based; conditions: Homo sapiens;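 also: cell viability assay read-out, with IC50 expressing suppression of KYSE-70 cell growth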
Description: SANGER: Inhibition of human KYSE-70 cell growth in a cell viability assay.

LCLC-103H cell line = experiment: cells; format: functional, cell-based; conditions: Homo sapiens
Description: SANGER: Inhibition of human LCLC-103H cell growth in a cell viability assay.

LCLC-97TM1 = experiment: cells; format: functional, cell-based; conditions: Homo sapiens;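 also: cell viability assay measuring growth inhibition of human LCLC-97TM1 cells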
Description: SANGER: Inhibition of human LCLC-97TM1 cell growth in a cell viability assay.

LoVo = experiment: cells; format: functional, cell-based; conditions: Homo sapiens;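 also: growth inhibition of human LoVo cells, read out with a cell viability assay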
Description: SANGER: Inhibition of human LoVo cell growth in a cell viability assay.

MCF7 = experiment: cells; format: functional, cell-based; conditions: Homo sapiens;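 also: growth inhibition of human MCF7 cells, read out with a cell viability assay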
Description: SANGER: Inhibition of human MCF7 cell growth in a cell viability assay.

MEL-HO = experiment: cells; format: functional, cell-based; conditions: Homo sapiens
Description: SANGER: Inhibition of human MEL-HO cell growth in a cell viability assay.

NCI-H1755 = experiment: cells; format: functional, cell-based; conditions: Homo sapiens;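 also: cell viability readout used to measure growth inhibition of NCI-H1755 cells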
Description: SANGER: Inhibition of human NCI-H1755 cell growth in a cell viability assay.

NCI-H1793 = experiment: cells; format: functional, cell-based; conditions: Homo sapiens;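 also: cell growth inhibition, read out by a cell viability assay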
Description: SANGER: Inhibition of human NCI-H1793 cell growth in a cell viability assay.

NCI-H2087 = experiment: cells; format: functional, cell-based; conditions: Homo sapiens;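 also: growth inhibition determined with a cell viability readout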
Description: SANGER: Inhibition of human NCI-H2087 cell growth in a cell viability assay.

NCI-H2228 = experiment: cells; format: functional, cell-based; conditions: Homo sapiens;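 also: growth inhibition of human NCI-H2228 cells, read out by a cell viability assay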
Description: SANGER: Inhibition of human NCI-H2228 cell growth in a cell viability assay.

NCI-H2342 = experiment: cells; format: functional, cell-based; conditions: Homo sapiens;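 also: growth inhibition of the cancer cell line, determined with a cell viability assay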
Description: SANGER: Inhibition of human NCI-H2342 cell growth in a cell viability assay.

OVCAR-3 = experiment: cells; format: functional, cell-based; conditions: Homo sapiens;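 also: growth inhibition of human OVCAR-3 cells, determined by a cell viability assay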
Description: SANGER: Inhibition of human OVCAR-3 cell growth in a cell viability assay.

P12-Ichikawa = experiment: cells; format: functional, cell-based; conditions: Homo sapiens
PC-3 = experiment: cells; format: functional, cell-based; conditions: Homo sapiens
Description: SANGER: Inhibition of human PC-3 cell growth in a cell viability assay.

SK-LU-1 = experiment: cells; format: functional, cell-based; conditions: Homo sapiens;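 also: cell viability assay measuring growth inhibition of human SK-LU-1 cells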
Description: SANGER: Inhibition of human SK-LU-1 cell growth in a cell viability assay.

SK-MES-1 = experiment: cells; format: functional, cell-based; conditions: Homo sapiens;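 also: growth inhibition of human SK-MES-1 cells, read out with a cell viability assay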
Description: SANGER: Inhibition of human SK-MES-1 cell growth in a cell viability assay.

SK-OV-3 = experiment: cells; format: functional, cell-based; conditions: Homo sapiens;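 also: growth inhibition of SK-OV-3 human cells, read out with a cell viability assay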
Description: SANGER: Inhibition of human SK-OV-3 cell growth in a cell viability assay.

SNU-387 = experiment: cells; format: functional, cell-based; conditions: Homo sapiens
Description: SANGER: Inhibition of human SNU-387 cell growth in a cell viability assay.

SW13 = experiment: cells; format: functional, cell-based; conditions: Homo sapiens;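 also: IC50 is inhibition of SW13 cell growth, read out with a cell viability assay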
Description: SANGER: Inhibition of human SW13 cell growth in a cell viability assay.

A-427 = experiment: cells; format: functional, cell-based; conditions: Homo sapiens;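 also: growth inhibition of human A-427 cells, read out by a cell viability assay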
Description: SANGER: Inhibition of human A427 cell growth in a cell viability assay.

A673 = experiment: cells; format: functional, cell-based; conditions: Homo sapiens;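 also: growth inhibition of human A673 cells, read out through a cell viability assay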
Description: SANGER: Inhibition of human A673 cell growth in a cell viability assay.

ABC-1 = experiment: cells; format: functional, cell-based; conditions: Homo sapiens;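 also: growth inhibition of human ABC-1 cells, read out by a cell viability assay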
Description: SANGER: Inhibition of human ABC-1 cell growth in a cell viability assay.

BT-20 = experiment: cells; format: functional, cell-based; conditions: Homo sapiens;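 also: cell viability assay measuring suppression of growth in human BT-20 cells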
Description: SANGER: Inhibition of human BT-20 cell growth in a cell viability assay.

BXPC-3 = experiment: cells; format: functional, cell-based; conditions: Homo sapiens;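 also: growth inhibition of human BxPC-3 cells, read out by a cell viability assay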
Description: SANGER: Inhibition of human BxPC-3 cell growth in a cell viability assay.

CAKI-1 = experiment: cells; format: functional, cell-based; conditions: Homo sapiens;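 also: growth inhibition of CAKI-1 cells, measured by a cell viability assay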
Description: SANGER: Inhibition of human CAKI-1 cell growth in a cell viability assay.

CAL-120 = experiment: cells; format: functional, cell-based; conditions: Homo sapiens;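 also: cell growth inhibition, read out as cell viability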
Description: SANGER: Inhibition of human CAL-120 cell growth in a cell viability assay.

U-251 = experiment: cells; format: functional, cell-based; conditions: Homo sapiens;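 also: growth inhibition of human U-251 cells, read out through a cell viability assay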
Description: SANGER: Inhibition of human U251 cell growth in a cell viability assay.

UMUC3 = experiment: cells; format: functional, cell-based; conditions: Homo sapiens;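 also: growth inhibition of human UM-UC-3 cells, read out with a cell viability assay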
Description: SANGER: Inhibition of human UM-UC-3 cell growth in a cell viability assay.

UMC-11 = experiment: cells; format: functional, cell-based; conditions: Homo sapiens;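 also: growth inhibition of UMC-11 cells, read out with a cell viability assay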
Description: SANGER: Inhibition of human UMC-11 cell growth in a cell viability assay.

YAPC = experiment: cells; format: functional, cell-based; conditions: Homo sapiens;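 also: growth inhibition of YAPC cells, measured with a cell viability assay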
Description: SANGER: Inhibition of human YAPC cell growth in a cell viability assay.

Nc1ccccc1NC(=O)c1ccc(CNC(=O)OCc2cccnc2)cc1 [ENTINOSTAT] showed an IC50 (D-542MG) of 1890 nM, an IC50 (DG-75; Homo sapiens, DG-75) of 2270 nM and an IC50 (DMS-153; Homo sapiens, DMS-153) of 975 nM. For the same compound, the IC50 (Daudi; Homo sapiens, Daudi) was 777 nM, the IC50 (EHEB) was 926 nM and the IC50 (GDM-1; Homo sapiens, GDM-1) was 887 nM. For the same compound, the IC50 (KMS-12-PE; Homo sapiens, KMS-12-PE) was > 5000 nM, the IC50 (MC-CAR; Homo sapiens, MC-CAR) was > 5000 nM and the IC50 (MONO-MAC-6; Homo sapiens, MONO-MAC-6) was 388 nM. The IC50 (NALM-6; Homo sapiens, NALM-6) was 649 nM, the IC50 (NB1; Homo sapiens, NB1) was 1280 nM and the IC50 (NCI-H1882; Homo sapiens, NCI-H1882) was 2680 nM. For the same compound, the IC50 (NCI-H524; Homo sapiens, NCI-H524) was 554 nM, the IC50 (NCI-H64; Homo sapiens, NCI-H64) was 1280 nM and the IC50 (NCI-H889; Homo sapiens, NCI-H889) was > 5000 nM. For the same compound, the IC50 (Raji; Homo sapiens, Raji) was > 5000 nM, the IC50 (TE-441-T; Homo sapiens, TE-441-T) was > 5000 nM and the IC50 (CESS; Homo sapiens, CESS) was 812 nM.

In the case of CC(C)C[C@@H](C=O)NC(=O)[C@H](CC(C)C)NC(=O)[C@H](CC(C)C)NC(=O)OCc1ccccc1 [MG-132] (Cbz-Leu-Leu-Leu-aldehyde), the IC50 (D-542MG) is reported as 59.6 nM, the IC50 (DG-75; Homo sapiens, DG-75) is reported as > 1000 nM and the IC50 (DG-75; dg-75) is reported as > 1000 nM. For the same compound, the IC50 (DMS-153; Homo sapiens, DMS-153) was > 1000 nM, the IC50 (DMS-153; dms-153) was > 1000 nM and the IC50 (Daudi; daudi) was > 1000 nM. The IC50 (EHEB) was > 1000 nM, the IC50 (GDM-1; gdm-1) was 351 nM and > 1000 nM and the IC50 (KMS-12-PE; kms-12-pe) was > 1000 nM. The IC50 (MC-CAR; mc-car) was > 1000 nM, the IC50 (MONO-MAC-6; Homo sapiens, MONO-MAC-6) was 536 nM and the IC50 (MONO-MAC-6; mono-mac-6) was 718 nM. The IC50 (NALM-6; Homo sapiens, NALM-6) was > 1000 nM, the IC50 (NALM-6; nalm-6) was > 1000 nM and the IC50 (NB1; nb1) was > 1000 nM. The IC50 (NCI-H1882; nci-h1882) was 590 nM and > 1000 nM, the IC50 (NCI-H524; Homo sapiens, NCI-H524) was > 1000 nM and the IC50 (NCI-H524; nci-h524) was > 1000 nM. For the same compound, the IC50 (NCI-H64; nci-h64) was > 1000 nM, the IC50 (NCI-H889; nci-h889) was > 1000 nM and the IC50 (Raji; Homo sapiens, Raji) was > 1000 nM. The IC50 (Raji; raji) was > 1000 nM, the IC50 (TE-441-T; te-441-t) was > 1000 nM and the IC50 (CESS; cess) was 171 nM and > 1000 nM.

In the case of O=C1NC(=O)c2c1c(-c1ccccc1Cl)cc1[nH]c3ccc(O)cc3c21, the IC50 (DoTc2-4510) is reported as > 2000 nM, the IC50 (EFM-19) is reported as > 2000 nM and the IC50 (GCT) is reported as > 2000 nM. For the same compound, the IC50 (HCC1419) was > 2000 nM, the IC50 (HT-1376) was > 2000 nM and the IC50 (HTC-C3) was 995 nM. For the same compound, the IC50 (HuCCT-1) was > 2000 nM, the IC50 (KP-4) was > 2000 nM and the IC50 (KYSE-180) was > 2000 nM. For the same compound, the IC50 (KYSE-410) was 1560 nM, the IC50 (KYSE-70 cell line) was > 2000 nM and the IC50 (LCLC-103H cell line) was > 2000 nM. For the same compound, the IC50 (LCLC-97TM1) was > 2000 nM, the IC50 (LoVo) was > 2000 nM and the IC50 (MCF7) was > 2000 nM. For the same compound, the IC50 (MEL-HO) was > 2000 nM, the IC50 (NCI-H1755) was > 2000 nM and the IC50 (NCI-H1793) was > 2000 nM. The IC50 (NCI-H2087) was > 2000 nM, the IC50 (NCI-H2228) was > 2000 nM and the IC50 (NCI-H2342) was > 2000 nM. For the same compound, the IC50 (OVCAR-3) was > 2000 nM, the IC50 (P12-Ichikawa) was 482 nM and the IC50 (PC-3) was > 2000 nM. For the same compound, the IC50 (SK-LU-1) was 1000 nM, the IC50 (SK-MES-1) was 1720 nM and the IC50 (SK-OV-3) was > 2000 nM. For the same compound, the IC50 (SNU-387) was > 2000 nM, the IC50 (SW13) was > 2000 nM and the IC50 (A-427) was > 2000 nM. The IC50 (A673) was > 2000 nM, the IC50 (ABC-1) was > 2000 nM and the IC50 (BT-20) was > 2000 nM. The IC50 (BXPC-3) was > 2000 nM, the IC50 (CAKI-1) was > 2000 nM and the IC50 (CAL-120) was > 2000 nM. For the same compound, the IC50 (U-251) was > 2000 nM, the IC50 (UMUC3) was > 2000 nM and the IC50 (UMC-11) was > 2000 nM. The IC50 (YAPC) was > 2000 nM.
